Tests used:
[1] = test system: lung tissue; test: Histopathologic analysis of lungs (Example 1); type: in vivo, mice; details: 1.5 U/kg bleomycin instilled
Source text: At the end of the experiments, the animals were euthanized, the lungs were extracted and immediately fixed in 10% phosphate-buffered formalin. Samples were subsequently dehydrated and embedded in Paraplast®. Five-micrometer sections were cut and stained with hematoxylin-eosin as previously described and analyzed.

[2] = test system: hydroxyproline content in the lungs; test: Hydroxyproline assay in lungs (Example 1); type: in vivo, mice; details: three weeks after instillation of 1.5 U/kg bleomycin
Description: […] Homogenized lung tissues were hydrolyzed in 12 N HCl at 120° C. for 3 h in pressure-tight vials. After this, 10 μl of samples were allocated to a 96 well plate and dried under vacuum. Oxidation buffer with chloramine T was added to each sample at room temperature for 5 min, and the samples were incubated in dimethylaminobenzaldehyde (DMAB) reagent for 90 min at 60° C. Samples were cooled and the absorbance at 560 nm was measured using an automated microplate plate reader. Six concentrations of hydroxyproline standard dilutions (from 0 to 1 μg/well) were used to plot a hydroxyproline standard curve.

[3] = test system: lung fibrosis induced by intratracheal instillation of bleomycin; test: Animal model of IPF and inhalation treatment: body mass and mortality (Example 1); type: in vivo, mice; details: three weeks after instillation of 1.5 U/kg bleomycin
Description: (§1) Experiments were performed on healthy 6-8 weeks old SKH1-hr hairless mice (20-25 g) obtained from Charles River Laboratories (Wilmington, Mass.). Veterinary care followed the guidelines described in the guide for the care and use of laboratory animals (AAALAC) as well as the requirements established by the animal protocol approved by the Rutgers Institutional Animal Care and Use Committee (IACUC).
All mice were contained in micro-isolated cages under pathogen-free conditions at room temperature with humidity of 40±15% and light/dark cycle on 12 h per day in the animal maintenance facility. Mice were anesthetized via intraperitoneal instillation with 80 mg/kg ketamine and 10-12 mg/kg xylazine (Butler-Schine Animal Health Inc, Dublin, Ohio). Once anesthetized, the mouse was placed on the tilting rodent work stand (Hallowell EMC, Pittsfield, Mass.) in supine position and restrained in position by an incisor loop. The tongue was then extruded via rotation with a cotton tip applicator. The larynx was visualized using a modified 4 mm ear speculum attached to an operating head of an ophthalmoscope (Wellch Allyn, Skaneateles Falls, N.Y.). […]
Bleomycin was administered intratracheally in doses of 0.5, 1.0, 1.5, and 2.0 U/kg. […] Animal weight was measured daily throughout the study. […]

[4] = test system: mice; test: Selection of bleomycin dose (animal death after intratracheal instillation); type: in vivo; details: observed 21 days
Description: as §1
All mice were contained in micro-isolated cages under pathogen-free conditions at room temperature with humidity of 40±15% and light/dark cycle on 12 h per day in the animal maintenance facility. Mice were anesthetized via intraperitoneal instillation with 80 mg/kg ketamine and 10-12 mg/kg xylazine (Butler-Schine Animal Health Inc, Dublin, Ohio). Once anesthetized, the mouse was placed on the tilting rodent work stand (Hallowell EMC, Pittsfield, Mass.) in supine position and restrained in position by an incisor loop. The tongue was then extruded via rotation with a cotton tip applicator. The larynx was visualized using a modified 4 mm ear speculum attached to an operating head of an ophthalmoscope (Wellch Allyn, Skaneateles Falls, N.Y.). The modified speculum, acting in an inverted fashion as a laryngoscope blade, provided dorsal displacement of the tongue and magnification of the laryngeal opening as described.
Bleomycin was administered intratracheally in doses of 0.5, 1.0, 1.5, and 2.0 U/kg. Mice were treated with liposomal PGE2 by inhalation twice a week for three weeks starting with the second day after the bleomycin administration. […] Animal weight was measured daily throughout the study. After the three weeks treatment period, all mice were anesthetized with isoflurane and euthanized. The organs (lungs, heart, liver, kidney, spleen, and brain) were excised and used for further analysis.
In order to select an appropriate dose of bleomycin, four doses (0.5; 1.0; 1.5; 2.0 U/kg) were tested. […] The dose of 2.0 U/kg led to the death of 100% of animals within 21 days (FIG. 1A). The doses of 1.5 and 1.0 U/kg induced death of 50 and 25% of animals, respectively.

[5] = test system: IPF initiated by the intratracheal instillation of bleomycin; test: Animal model of IPF and inhalation treatment starting day 15 (Example 2): body and lung weight, hydroxyproline, MRI, histology
Description: Healthy 6-8 weeks old SKH1-hr hairless mice of both genders (20-25 g) were obtained from Charles River Laboratories (Wilmington, Mass.). IPF was initiated by the intratracheal instillation of bleomycin at the dose of 1.5 U/kg. Changes in animal body and lung weight, hydroxyproline content in the lung tissue, and lung histology were used as hallmarks of the development of IPF in experimental animals.
Mice were treated separately with three different NLC-based DDS containing PGE2 and siRNA targeted to MMP3, CCL12 and HIF1A mRNA with appropriate controls by inhalation twice a week for three weeks starting 15 days after the bleomycin administration. […] A previously developed instillation unit consisting of a collision nebulizer connected to four-port, nose-only exposure chambers was used for inhalation delivery of NLC-PEG2-siRNA. NLC-based DDS was aerosolized at the flow rate of 2 L/min for ten min. Animal weight was measured daily throughout the study. In vivo imaging was performed twice per week in anesthetized mice during the whole course of the treatment. Optical Imaging (In-Vivo MS FX PRO, IVIS 100) and ultrasound (Vevo 2100 imaging system) was performed to monitor the body distribution of nanoparticles and disease progression, respectively. Animals were treated 6 times (2 times per week) starting from the day 15 after bleomycin instillation.
Expression of genes and proteins involved in the development and compensation of IPF was studied by quantitative RT-PCR (genes), Western blotting and Immunohistochemistry (proteins). In addition, body and organ weights as well as hydroxyproline content in the lungs was monitored. The distribution of osmium-, fluorescent- or tritium-labeled DDS was examined in mouse lungs, heart, liver, spleen, kidneys, and brain using transmission electron and confocal microscopes, optical imaging systems, and a radioactive counter, respectively. Adverse side effects of the treatment were determined by histopathological analysis, apoptosis and necrosis measurement in the healthy organs (heart, liver, spleen, kidneys, and brain).
Changes in animal body and lung weight, hydroxyproline content in the lung tissue and lung histology were used as hallmarks of the development of IPF in experimental animals after the instillation of 1.5 U/kg of bleomycin.

[6] = test system: 84 key genes involved in tissue remodeling; MMP3, CCL12, HIF1A; test: Gene and protein expression in lung tissues (Example 2); type: in vivo, mice; details: treatment with PGE2
Description: The profiles of the expression of 84 key genes involved in tissue remodeling during wound repair and development of fibrosis were studied in the lung tissues. […] Overexpression of some proteins was confirmed using immunostaining of lung tissue sections (FIG. 13A). In addition to genes included in the mouse fibrosis array, the expression of VEGF and hypoxia inducible factor 1 alpha (HIF1A) proteins was analyzed by immunohistochemistry (FIG. 13A) and Western blotting (FIG. 13B). Instillation of bleomycin led to the overexpression of HIF1A protein (FIGS. 13A and B).

[7] = 15 days after instillation of 1.5 U/kg bleomycin
[8] = PGE2 delivered by liposomes or NLC by inhalation, from day 15

Row | Compound | lung histology [1] | increase of hydroxyproline concentration in the lungs [2] | body mass of animals, % of its initial value [3] | animal death ([4]; bleomycin 0.5 U/kg intratracheally) | death of animals ([4]; bleomycin 1.0 U/kg intratracheally) | death of animals ([4]; bleomycin 1.5 U/kg intratracheally) | death of animals within 21 days ([4]; bleomycin 2.0 U/kg intratracheally) | body weight of animals, % of its initial value [5, 7] | increase of hydroxyproline concentration in the lungs [5, 7] | lung weight [5, 7] | lung histology ([5]; bleomycin 1.5 U/kg) | expression of MMP3, CCL12 and HIF1A versus control after treatment [6] | signs of IPF and lung tissue injury detected by MRI and histopathology ([5]; PGE2 alone delivered locally into the lungs) | hydroxyproline content in the lungs of treated animals versus healthy control ([5]; PGE2 by inhalation, from day 15) | body weight of experimental animals [5, 8] | lung weight [5, 8] | therapeutic effects of PGE2 delivered by liposomes versus NLC ([5]; inhalation)
1 | bleomycin | consolidation of the pulmonary architecture, with early fibrotic thickening of the alveolar walls, ablation of the alveolar space, and edema | 2.6 times | 75% | did not induce animal death | 25% | 50% | 100% | 75% | 2.6 fold | significantly increased | consolidation of the pulmonary architecture, with early fibrotic thickening of the alveolar walls, ablation of the alveolar space, and edema |  |  |  |  |  | 
2 | CCCCC[C@H](O)/C=C/[C@H]1[C@H](O)CC(=O)[C@@H]1C/C=C\CCCC(=O)O [PGE2, Prostaglandin E2] |  |  |  |  |  |  |  |  |  |  |  | still substantially higher when compared with control | substantially less pronounced | still significantly higher | decreased the body weight of experimental animals induced by bleomycin | had a little effect on the lung weight | comparable

Source: patent publication US9445993B2, “Nanotechnology approach for inhalation therapies” (Rutgers, The State University of New Jersey, priority 2012, dated 2016)
